pIC50: −log10 of the molar value. Like-named read-outs stand apart in the source and are kept apart here.
Columns and labels:
[1] = system: Aβ40 in conditioned medium of cells stably expressing Amyloid Precursor Protein (APP); assay: In vitro BACE cell-based assay (Aβ40 in conditioned medium, sandwich ELISA); details: for pIC50: read-out: HEK cell assay
Outline: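 Conditioned medium from stably APP-expressing cells treated with compound dose series is assayed for Aβ40 by sandwich ELISA with time-resolved fluorescence detection. IC50 is calculated from percent inhibition of Aβ40 against compound concentration.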

[2] = target: Beta Secretase enzyme (BACE) (Homo sapiens, UniProt P56817); assay: In vitro enzymatic BACE FRET (fluorescence resonance energy transfer) assay; assay type: biochemical; details: for pIC50: average IC50, enzyme assay, read-out: BACE 1 FRET assay
Outline: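 Enzyme activity was measured at pH 4.2 (0.05 M acetate, 10% DMSO final, 100 uM genapol) by cleavage of a 50 nM quenched fluorogenic peptide. After one hour, Tris was added to neutralise the pH and fluorescence was recorded.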

[3] = Homo sapiens, HEK293, average IC50, HEK cells

Sequence of Beta Secretase enzyme (BACE) (P56817 46-501, species assumed): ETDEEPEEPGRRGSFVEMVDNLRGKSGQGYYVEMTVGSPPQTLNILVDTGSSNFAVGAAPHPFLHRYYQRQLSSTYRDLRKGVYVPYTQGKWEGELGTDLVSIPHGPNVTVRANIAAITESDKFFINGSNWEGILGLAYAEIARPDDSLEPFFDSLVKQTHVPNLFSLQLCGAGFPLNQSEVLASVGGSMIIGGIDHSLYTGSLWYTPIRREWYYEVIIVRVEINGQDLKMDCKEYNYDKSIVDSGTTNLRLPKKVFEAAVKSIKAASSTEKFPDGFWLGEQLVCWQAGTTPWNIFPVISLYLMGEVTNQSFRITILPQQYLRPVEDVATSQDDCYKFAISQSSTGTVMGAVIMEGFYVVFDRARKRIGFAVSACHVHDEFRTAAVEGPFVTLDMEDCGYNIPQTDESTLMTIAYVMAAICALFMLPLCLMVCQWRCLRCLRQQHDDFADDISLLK

pIC50 [1, 3] | pIC50 [2] | pIC50 ([1]; average IC50, HEK cells) | SMILES | IC50 ([1]; Homo sapiens, HEK293, read-out: HEK cell assay (uM), average IC50, HEK cells) [µM] | IC50 ([2]; BACE 1 FRET assay (uM)) [µM]
5.75 | 6.05 |  | COc1cc(F)c2c(c1)[C@]1(COC(N)=N1)c1cc(Br)c(F)cc1O2 [Example 523, (4S)-2′-bromo-3′,5′-difluoro-7′-methoxyspiro[1,3-oxazole-4,9′-xanthen]-2-amine] |  | 
5.88 | 5.94 |  | COc1cc(F)c2c(c1)[C@@]1(COC(N)=N1)c1cc(Br)c(F)cc1O2 [Example 524, (4R)-2′-bromo-3′,5′-difluoro-7′-methoxyspiro[1,3-oxazole-4,9′-xanthen]-2-amine] |  | 
5.62 | 6.80 |  | CC(C)(C)COc1cc(F)c2c(c1)[C@@]1(COC(N)=N1)c1cc(-c3cncnc3)c(F)cc1O2 [Example 525, (4R)-7′-(2,2-dimethylpropoxy)-3′,5′-difluoro-2′-(5-pyrimidinyl)spiro[1,3-oxazole-4,9′-xanthen]-2-amine] |  | 
8.04 | 8.70 |  | CC(C)(C)COc1cc(F)c2c(c1)[C@]1(COC(N)=N1)c1cc(-c3cncnc3)c(F)cc1O2 [Example 526, (4S)-7′-(2,2-dimethylpropoxy)-3′,5′-difluoro-2′-(5-pyrimidinyl)spiroy[1,3-oxazole-4,9′-xanthen]-2-amine] |  | 
6.21 | 8.82 |  | NC1=N[C@@]2(CO1)c1cc(-c3cccc(Cl)c3)ccc1Oc1cnc(-c3cccc(Cl)c3)cc12 [Example 527, (5S)-3,7-bis(3-chlorophenyl)spiro[chromeno[2,3-c]pyridine-5,4′-[1,3]oxazol]-2′-amine] |  | 
5.64 | 7.26 |  | NC1=N[C@@]2(CO1)c1cc(-c3cccc(Cl)c3)ccc1Oc1cnc(Cl)cc12 [Example 528, (5S)-3-chloro-7-(3-chlorophenyl)spiro[chromeno[2,3-c]pyridine-5,4′-[1,3]oxazol]-2′-amine] |  | 
8.36 | 8.05 |  | CN1CCN(c2cc3c(cn2)Oc2ccc(-c4cccnc4F)cc2[C@@]32COC(N)=N2)CC1(C)C [Example 529, (5S)-7-(2-fluoro-3-pyridinyl)-3-(3,3,4-trimethyl-1-piperazinyl)spiro[chromeno[2,3-c]pyridine-5,4′-[1,3]oxazol]-2′-amine] |  | 
6.71 | 5.47 |  | C[C@H]1CN(c2cc3c(cn2)Oc2ccc(-c4cccnc4N4CCN(C)[C@@H](C)C4)cc2[C@@]32COC(N)=N2)CCN1C [Example 530, (5S)-3-((3S)-3,4-dimethyl-1-piperazinyl)-7-(2-((3S)-3,4-dimethyl-1-piperazinyl)-3-pyridinyl)spiro[chromeno[2,3-c]pyridine-5,4′-[1,3]oxazol]-2′-amine] |  | 
6.48 | 4.86 |  | CN1CCN(c2cccc(-c3ccc4c(c3)[C@@]3(COC(N)=N3)c3cc(Cl)ncc3O4)c2)CC1(C)C [Example 531, (5S)-3-chloro-7-(3-(3,3,4-trimethyl-1-piperazinyl)phenyl)spiro[chromeno[2,3-c]pyridine-5,4′-[1,3]oxazol]-2′-amine] |  | 
6.77 | 5.63 |  | COc1ccc2c(c1)[C@@]1(COC(N)=N1)c1cc(N3CCN(C)C(C)(C)C3)cc(F)c1O2 [Example 532, (4S)-4′-fluoro-7′-methoxy-2′-(3,3,4-trimethyl-1-piperazinyl)spiro[1,3-oxazole-4,9′-xanthen]-2-amine] |  | 
7.58 | 9.30 |  | NC1=N[C@@]2(CO1)c1cc(-c3cccnc3F)ccc1Oc1cnc(-c3ccc(F)c(F)c3)cc12 [Example 534, (5S)-3-(3,4-difluorophenyl)-7-(2-fluoro-3-pyridinyl)spiro[chromeno[2,3-c]pyridine-5,4′-[1,3]oxazol]-2′-amine] |  | 
6.98 | 9.15 |  | COc1ccc(-c2cc3c(cn2)Oc2ccc(-c4cccc(Cl)c4)cc2[C@@]32COC(N)=N2)cc1F [Example 535, (5S)-7-(3-chlorophenyl)-3-(3-fluoro-4-methoxyphenyl)spiro[chromeno[2,3-c]pyridine-5,4′-[1,3]oxazol]-2′-amine] |  | 

The remaining lines, values behind:

SMILES | pIC50 [1, 3] | pIC50 [2] | pIC50 ([1]; average IC50, HEK cells) | IC50 ([1]; Homo sapiens, HEK293, read-out: HEK cell assay (uM), average IC50, HEK cells) [µM] | IC50 ([2]; BACE 1 FRET assay (uM)) [µM]
COc1ccc(OC)c(-c2ccc3c(c2)[C@@]2(COC(N)=N2)c2cc(C4=CCOCC4)cnc2O3)c1 [Example 502, (5S)-3-(3,6-dihydro-2H-pyran-4-yl)-7-(2,5-dimethoxyphenyl)spiro[chromeno[2,3-b]pyridine-5,4′-[1,3]oxazol]-2′-amine] | 7.90 | 8.60 |  |  | 
CC(C)(C)COc1ccc2c(c1)[C@@]1(COC(N)=N1)c1cc(C3=CCOCC3)cnc1O2 [Example 503, (5S)-3-(3,6-dihydro-2H-pyran-4-yl)-7-(2,2-dimethylpropoxy)spiro[chromeno[2,3-b]pyridine-5,4′-[1,3]oxazol]-2′-amine] | 7.71 | 8.33 |  |  | 
CC(C)(C)COc1ccc2c(c1)[C@@]1(COC(N)=N1)c1cc(C3=CCOC(C)(C)C3)cnc1O2 [Example 504, (5S)-3-(2,2-dimethyl-3,6-dihydro-2H-pyran-4-yl)-7-(2,2-dimethylpropoxy)spiro[chromeno[2,3-b]pyridine-5,4′-[1,3]oxazol]-2′-amine] | 7.53 | 8.12 |  |  | 
CC1(C)CC(c2ccc3c(c2)[C@]2(COC(N)=N2)c2cc(-c4cncnc4)c(F)cc2O3)=CCO1 [Example 505, (4R)-7′-(2,2-dimethyl-3,6-dihydro-2H-pyran-4-yl)-3′-fluoro-2′-(5-pyrimidinyl)spiro[1,3-oxazole-4,9′-xanthen]-2-amine] | 7.90 | 8.59 |  |  | 
CC(C)(C)COc1ccc2c(c1)[C@@]1(COC(N)=N1)c1cc(C3=CC(C)(C)OCC3)cnc1O2 [Example 506, (5S)-3-(6,6-dimethyl-3,6-dihydro-2H-pyran-4-yl)-7-(2,2-dimethylpropoxy)spiro[chromeno[2,3-b]pyridine-5,4′-[1,3]oxazol]-2′-amine] | 7.44 | 8.24 |  |  | 
CC(C)(C)COc1ccc2c(c1)[C@@]1(COC(N)=N1)c1cc(C3=CCOC(C)(C)C3)cnc1O2 [Example 507, (5S)-3-(2,2-dimethyl-3,6-dihydro-2H-pyran-4-yl)-7-(2,2-dimethylpropoxy)spiro[chromeno[2,3-b]pyridine-5,4′-[1,3]oxazol]-2′-amine] |  | 8.25 | 7.51 |  | 
CC(C)(C)COc1ccc2c(c1)[C@@]1(COC(N)=N1)c1cc(-c3cncnc3)c(F)cc1O2 [Example 511, (4R)-7′-(2,2-dimethylpropoxy)-3′-fluoro-2′-(5-pyrimidinyl)spiro[1,3-oxazole-4,9′-xanthen]-2-amine] | 6.31 | 7.00 |  |  | 
CC(C)(C)COc1ccc2c(c1)[C@]1(COC(N)=N1)c1cc(-c3cncnc3)c(F)cc1O2 [Example 512, (4S)-7′-(2,2-dimethylpropoxy)-3′-fluoro-2′-(5-pyrimidinyl)spiro[1,3-oxazole-4,9′-xanthen]-2-amine] | 6.42 | 6.99 |  |  | 
NC1=N[C@]2(CO1)c1cc(C3=CCCOC3)ccc1Oc1cc(F)c(-c3cncnc3)cc12 [Example 514, (4R)-7′-(5,6-dihydro-2H-pyran-3-yl)-3′-fluoro-2′-(5-pyrimidinyl)spiro[1,3-oxazole-4,9′-xanthen]-2-amine] | 7.94 | 8.59 |  |  | 
CC(C)(C)COc1ccc2c(c1)[C@]1(COC(N)=N1)c1c(ccc(-c3cncnc3)c1F)O2 [Example 515, (4R)-7′-(2,2-dimethylpropoxy)-1′-fluoro-2′-(5-pyrimidinyl)spiro[1,3-oxazole-4,9′-xanthen]-2-amine] | 7.55 | 8.89 |  |  | 
CC1(COc2ccc3c(c2Br)[C@]2(COC(N)=N2)c2cc(-c4cccnc4)ccc2O3)COC1 [Example 517, (4S)-1′-bromo-2′-((3-methyl-3-oxetanyl)methoxy)-7′-(3-pyridinyl)spiro[1,3-oxazole-4,9′-xanthen]-2-amine] | 7.69 | 8.08 |  |  | 
CC(C)(O)C#Cc1c(OCC2(C)COC2)ccc2c1[C@]1(COC(N)=N1)c1cc(-c3cccnc3)ccc1O2 [Example 518, 4-((4S)-2-amino-2′-((3-methyl-3-oxetanyl)methoxy)-7′-(3-pyridinyl)spiro[1,3-oxazole-4,9′-xanthen]-1′-yl)-2-methyl-3-butyn-2-ol] | 7.19 | 7.12 |  |  | 
NC1=N[C@@]2(CO1)c1cc(-c3cccnc3F)ccc1Oc1ncc(C#CC3(O)COC3)cc12 [Example 519, 3-(((5S)-2′-amino-7-(2-fluoro-3-pyridinyl)spiro[chromeno[2,3-b]pyridine-5,4′-[1,3]oxazol]-3-yl)ethynyl)-3-oxetanol] | 7.53 | 8.49 |  |  | 
NC1=N[C@@]2(CO1)c1cc(-c3cccnc3F)ccc1Oc1ncc(C#CC3(F)COC3)cc12 [Example 520, (5S)-3-((3-fluoro-3-oxetanyl)ethynyl)-7-(2-fluoro-3-pyridinyl)spiro[chromeno[2,3-b]pyridine-5,4′-[1,3]oxazol]-2′-amine] | 7.86 | 8.85 |  |  | 
COc1cc(F)c2c(c1)C1(COC(N)=N1)c1cc(Br)c(F)cc1O2 (stereo not shown) [Example 521, 2′-bromo-3′,5′-difluoro-7′-methoxyspiro[1,3-oxazole-4,9′-xanthen]-2-amine] | 5.00 | 5.14 |  |  | 
NC1=NC2(CS1)c1cc(I)ccc1Oc1ncc(Br)cc12 (stereo not shown) [Example 522, 3-bromo-7-iodospiro[chromeno[2,3-b]pyridine-5,4′-[1,3]thiazol]-2′-amine] | 5.00 | 5.35 |  |  | 
COc1ccc(-c2cc3c(cn2)Oc2ccc(-c4cccnc4F)cc2[C@@]32COC(N)=N2)cc1F [Example 533, (5S)-3-(3-fluoro-4-methoxyphenyl)-7-(2-fluoro-3-pyridinyl)spiro[chromeno[2,3-c]pyridine-5,4′-[1,3]oxazol]-2′-amine] |  |  |  | 0.0235 | 0.0014

Source: US8883782B2, “Spiro-tetracyclic ring compounds as beta-secretase modulators and methods of use” (Amgen Inc., priority 2010, dated 2014)
